# Assay results from US12502386B2, “Nitrogen-containing heterocyclic compound and use thereof” (SHANGHAI SHIJIANG BIOTECHNOLOGY CO., LTD, priority 2022, dated 2025).
# Where two headings read alike, the source gives them in different places.
# How the values were obtained:
# Type in all cases: cell-based, human
# [1] = system: Con-NCI-H82 cell; assay: CellTiter-Glo cell viability, Con-NCI-H82 cell (empty-vector control); settings: intracellular ATP, read-out: inhibitory effect on Con-NCI-H82 (IC50)
# [2] = system: ov-NNMT NCI-H82 cell; assay: CellTiter-Glo cell viability, ov-NNMT NCI-H82 cell (NNMT overexpressed); settings: intracellular ATP, read-out: inhibitory effect on OV-NNMT NCI-H82 (IC50)
# [3] = system: sh-DNMT1 NCI-H82 cell; assay: CellTiter-Glo cell viability, sh-DNMT1 NCI-H82 cell (DNMT1 knocked down); settings: intracellular ATP, read-out: inhibitory effect on sh-DNMT1 NCI-H82 (IC50)
# [4] = Homo sapiens, NCI-H82, NCI-H82 transfected with empty virus vector (control)
# [5] = Homo sapiens, NCI-H82, NCI-H82 overexpressing NNMT protein
# [6] = Homo sapiens, NCI-H82, NCI-H82 with DNMT1 knocked down by shRNA
Compound,"IC50 [1, 4] [µM]","IC50 [2, 5] [µM]","IC50 [3, 6] [µM]",IC50 ([1]; NCI-H82 transfected with empty virus vector (control)) [µM],IC50 ([2]; NCI-H82 overexpressing NNMT protein) [µM],IC50 ([3]; NCI-H82 with DNMT1 knocked down by shRNA) [µM]
COc1ccc2c(c1OC)C(C1CCCCC1=O)N1CCc3cc4c(cc3C1=C2)OCO4 (stereo not drawn) [AB36525],3.86,3.53,3.96,–,–,–
COc1ccc2c(c1OCCCBr)C(C)N1CCc3cc4c(cc3C1=C2)OCO4 (stereo not drawn) [AB31887],2.83,5.78,5.69,–,–,–
COc1ccc2c(c1OCCCBr)CN1CCc3cc4c(cc3C1C2)OCO4 (stereo not drawn) [AB31878],8.23,7.98,8.46,–,–,–
COc1ccc2c(c1OCCNC(=O)OC(C)(C)C)C(C)N1CCc3cc4c(cc3C1=C2)OCO4 (stereo not drawn) [AB35424],5.02,11.2,10.8,–,–,–
COc1ccc2cc3n(c(=O)c2c1OC)CCc1cc2c(cc1-3)OCO2 [AB36496],12.9,10.1,12.6,–,–,–
COc1ccc2c(c1OC)C(CC(C)=O)N1CCc3cc4c(cc3C1=C2)OCO4 (stereo not drawn) [AB36472],4.28,4.32,4.11,–,–,–
COc1ccc2c(c1OCCCCCCCl)C(C(Cl)(Cl)Cl)N1CCc3cc4c(cc3C1=C2)OCO4 (stereo not drawn) [AB35475],1.29,4.12,4.02,–,–,–
COc1ccc2c(c1OC(=O)CC13CC4CC(CC(C4)C1)C3)C(C)N1CCc3cc4c(cc3C1=C2)OCO4 (stereo not drawn) [AB31896],1.31,4.53,3.98,–,–,–
COc1ccc2c(c1OC)C(c1ccccc1)N1CCc3cc4c(cc3C1=C2)OCO4 (stereo not drawn) [AB36467],3.92,9.32,13.1,–,–,–
COc1ccc2c(c1OCCCCl)C(C)N1CCc3cc4c(cc3C1=C2)OCO4 (stereo not drawn) [AB35456],2.36,6.72,8.42,–,–,–
COc1ccc2c(c1OC)C(C1CCCC1)N1CCc3cc4c(cc3C1=C2)OCO4 (stereo not drawn) [AB36497],–,–,–,19.9,18.3,17
C1=C2c3cc4c(cc3CCN2C(C2CCCC2)c2cc3c(cc21)OCO3)OCO4 (stereo not drawn) [AB35467],5.64,13.3,15.4,–,–,–
COc1ccc2c(c1OC)C(C(Cl)(Cl)Cl)N1CCc3cc4c(cc3C1=C2CCCCCCCl)OCO4 (stereo not drawn) [AB35524],1.34,4.32,4.02,–,–,–
COc1ccc2c(c1OCCCN1CCCCC1)C(C)N1CCc3cc4c(cc3C1=C2)OCO4 (stereo not drawn) [AB35442],9.22,8.38,9.32,–,–,–
CCCC1=C2c3cc4c(cc3CCN2C(C(Cl)(Cl)Cl)c2c1ccc1c2OCO1)OCO4 (stereo not drawn) [AB36427],3.28,7.56,6.98,–,–,–

# Continued by falling IC50 [1, 4], values first:
"IC50 [1, 4] [µM]","IC50 [2, 5] [µM]","IC50 [3, 6] [µM]",Compound,IC50 ([1]; NCI-H82 transfected with empty virus vector (control)) [µM],IC50 ([2]; NCI-H82 overexpressing NNMT protein) [µM],IC50 ([3]; NCI-H82 with DNMT1 knocked down by shRNA) [µM]
1.02,2.56,3.68,[2H]C1([2H])c2c(ccc(OC)c2OC)C=C2c3cc4c(cc3CCN21)OCO4 [AB36434],–,–,–
0.92,3.44,3.24,COc1ccc2c(c1OC)CN1CCc3cc4c(cc3C1=C2)OCCO4 [AB36463],–,–,–
0.88,2.43,3.45,COc1ccc2c(c1OC/C=C(\C)CCC=C(C)C)C(C)N1CCc3cc4c(cc3C1=C2)OCO4 (stereo not drawn) [AB35402],–,–,–
0.68,1.53,2.07,COc1ccc2c(c1OC)C(C)N1CCc3cc4c(cc3C1=C2CCCc1ccccc1)OCCO4 (stereo not drawn) [AB35493],–,–,–
0.56,1.82,3.24,CC1c2c(ccc3c2OCO3)C(CCCc2ccccc2)=C2c3cc4c(cc3CCN21)OCO4 (stereo not drawn) [AB35427],–,–,–
0.49,1.98,3.23,CCCCCCOc1c(OC)ccc2c1C(C(Cl)(Cl)Cl)N1CCc3cc4c(cc3C1=C2)OCO4 (stereo not drawn) [AB35487],–,–,–
0.46,1.56,2.12,CCCCCCC1c2c(ccc3c2OCO3)C=C2c3cc4c(cc3CCN21)OCO4 (stereo not drawn) [AB35426],–,–,–
0.45,1.44,2.29,C1=C2c3cc4c(cc3CCN2Cc2cc3c(cc21)OCO3)OCO4 [AB36428],–,–,–
0.37,1.36,1.98,COc1ccc2c(c1N1CCC(C(F)(F)F)CC1)C(C(Cl)(Cl)Cl)N1CCc3cc4c(cc3C1=C2)OCO4 (stereo not drawn) [AB35514],–,–,–
